System: CD38 C-fusion IgG
Assay: Inactivation of CD38 C-fusion IgG by 2′-Cl-araNAD+-N3
Format: biochemical, human
Details: CD38 C-fusion IgG 2 nM, NGD+ 100 μM
Source text: The formation of cyclic GDP-ribose was monitored by a Synergy H1 plate reader (Biotek, VT) under the kinetic mode with excitation wavelength set at 300 nm and emission wavelength at 410 nm.

Structure (SMILES): [N-]=[N+]=NCCCNc1ncnc2c1ncn2[C@@H]1O[C@H](COP(=O)(O)OP(=O)([O-])OC[C@H]2O[C@@H]([n+]3cccc(C(N)=O)c3)[C@@H](Cl)[C@@H]2O)[C@@H](O)[C@H]1O [2′-Cl-araNAD^+-N3, 1-((2R,3S,4R,5R)-5-((((((((2R,3S,4R,5R)-5-(6-((3-azidopropyl)amino)-9H-purin-9-yl)-3,4-dihydroxytetrahydrofuran-2-yl)methoxy)(hydroxy)phosphoryl)oxy)oxidophosphoryl)oxy)methyl)-3-chloro-4-hydroxytetrahydrofuran-2-yl)-3-carbamoylpyridin-1-ium]
- kinact: 0.0039 ± 0.0007 s⁻¹

Source: patent US11684676B2, “Site-specific antibody-drug conjugates by ADP-ribosyl cyclases” (University of Southern California, priority 2020, dated 2023)
